Among the test systems are RPMI-8226 leukemia; SF-539 CNS; U251 CNS; SN12C renal; SF-295 CNS; OVCAR-4 ovarian; UACC-257 melanoma; SF-268 CNS; HOP-92 NSCLC.
Assay in all cases: DTP human tumour cell line panel, 48 h

This passage reports TGI results from PubChem BioAssay (NCI).

Each structure is given as a SMILES string.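 All cell lines were grown in 96-well plates and treated with compound for 48 hours. TGI denotes the concentration required for complete inhibition of growth.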

As to `C=C1c2[nH]c3c([N+](=O)[O-])c(OC)ccc3c2CCN1C(C)=O`, the TGI in the experiment with RPMI-8226 leukemia, with SF-539 CNS, in the experiment on U251 CNS, in the experiment with SN12C renal, in the experiment on SF-295 CNS and with OVCAR-4 ovarian was more than 100 µM in each case. Also, the TGI with UACC-257 melanoma and in the experiment on SF-268 CNS was more than 100 µM throughout.
For the compound `C/C(CC(=O)Nc1ccc(Cl)cc1)=N\NC(N)=S`, the TGI with RPMI-8226 leukemia, in the experiment on SF-539 CNS, with HOP-92 NSCLC, in the experiment on U251 CNS, in the experiment on SF-295 CNS and in the experiment on UACC-257 melanoma was more than 100 µM in each case. Besides, the TGI in the experiment on SF-268 CNS is more than 100 µM.
For the compound `C[C@]12CCC3[C@@H](CC[C@@H]4c5nonc5CC[C@]34C)C1C/C(=N/O)C2=O` (stereo partly drawn), the TGI in the experiment with RPMI-8226 leukemia, in the experiment on SF-539 CNS, in the experiment on HOP-92 NSCLC, in the experiment with U251 CNS, in the experiment with SN12C renal and with SF-295 CNS was more than 100 µM each time. Further, the TGI in the experiment on OVCAR-4 ovarian, with UACC-257 melanoma and in the experiment on SF-268 CNS was more than 100 µM in each case.
Regarding `CCOC(=O)NC(=O)c1cn(CCCCCCOC(=O)NCCCCCCNC(=O)OCCCCCCn2cc(C(=O)NC(=O)OCC)c(=O)[nH]c2=O)c(=O)[nH]c1=O`, the TGI in the experiment on RPMI-8226 leukemia, with SF-539 CNS, in the experiment on U251 CNS, with SN12C renal, in the experiment on SF-295 CNS and in the experiment with OVCAR-4 ovarian was more than 100 µM throughout. The TGI with UACC-257 melanoma and with SF-268 CNS was more than 100 µM each time.
On to `CN(C(=O)c1ccco1)C(=S)N1CCN(c2ccccc2)CC1`, for which the TGI in the experiment on RPMI-8226 leukemia, in the experiment with SF-539 CNS, in the experiment with HOP-92 NSCLC, with U251 CNS, in the experiment on SN12C renal and in the experiment on SF-295 CNS was more than 100 µM each time. Moreover, the TGI in the experiment on OVCAR-4 ovarian, in the experiment with UACC-257 melanoma and in the experiment with SF-268 CNS was more than 100 µM each time.
Take `O=C1CC(S(=O)(=O)O)C=C1Nc1cccc(Cl)c1` (stereo not drawn): the TGI in the experiment on SF-539 CNS, with HOP-92 NSCLC, in the experiment on U251 CNS, in the experiment with SN12C renal, with SF-295 CNS and in the experiment on OVCAR-4 ovarian was more than 100 µM each time. In addition, the TGI in the experiment on UACC-257 melanoma and in the experiment on SF-268 CNS was more than 100 µM throughout.
As for `Cc1ccc(N2C(=O)C3C=CC(n4[nH]c(=O)n(Cc5ccccc5)c4=O)CC3C2=O)cc1` (stereo not drawn), the TGI with RPMI-8226 leukemia, in the experiment with SF-539 CNS, in the experiment on HOP-92 NSCLC, in the experiment on U251 CNS, with SN12C renal and in the experiment on SF-295 CNS was more than 100 µM throughout. In addition, the total growth inhibition concentration (TGI) in the experiment on UACC-257 melanoma and with SF-268 CNS was more than 100 µM each time.
For `O=CC1CCCc2ccccc21` (stereo not drawn), the TGI in the experiment with RPMI-8226 leukemia is more than 65.8 µM; in the experiment on HOP-92 NSCLC, more than 100 µM; in the experiment on U251 CNS, more than 59.4 µM; in the experiment with SN12C renal, more than 100 µM; in the experiment on SF-295 CNS, more than 100 µM; in the experiment on OVCAR-4 ovarian, more than 100 µM. In addition, the TGI in the experiment on UACC-257 melanoma was more than 100 µM; in the experiment on SF-268 CNS, more than 31.6 µM.
On to `COC(=O)c1cc(Cl)ccc1NC(=O)c1ccc([N+](=O)[O-])cc1`, for which the TGI was 69.4 µM in the experiment on RPMI-8226 leukemia; 49.1 µM in the experiment with SF-539 CNS; 22.2 µM with U251 CNS; 6.1 µM in the experiment with SF-295 CNS; 12.3 µM in the experiment on OVCAR-4 ovarian; more than 100 µM in the experiment on UACC-257 melanoma.
Take `COc1ccc(/C=N/N=C(\N)NO)c(OC)c1`: the TGI in the experiment with RPMI-8226 leukemia was more than 100 µM; in the experiment on SF-539 CNS, more than 100 µM; in the experiment on HOP-92 NSCLC it was more than 100 µM; in the experiment with U251 CNS, more than 100 µM; with SN12C renal it was more than 100 µM; in the experiment on SF-295 CNS it was 70.7 µM. The TGI with OVCAR-4 ovarian, in the experiment with UACC-257 melanoma and in the experiment on SF-268 CNS was more than 100 µM each time.
In the case of `O=S1(=O)OCCOS(=O)(=O)C1Cc1ccccc1`, the TGI in the experiment with RPMI-8226 leukemia is 69.2 µM; in the experiment with SF-539 CNS, 95.6 µM; in the experiment with HOP-92 NSCLC, more than 100 µM; in the experiment with U251 CNS it was more than 100 µM; in the experiment on SN12C renal it was more than 100 µM; in the experiment with SF-295 CNS, more than 100 µM. Also, the TGI in the experiment with OVCAR-4 ovarian, with UACC-257 melanoma and in the experiment on SF-268 CNS was more than 100 µM throughout.
For the compound `COC(=O)C1=C(c2cc(OC)c(OC)c(OC)c2)OC(c2ccc(OC)c(OC)c2)C1` (stereo not drawn), the TGI in the experiment with RPMI-8226 leukemia, with SF-539 CNS, in the experiment on HOP-92 NSCLC, with U251 CNS, in the experiment with SN12C renal and with SF-295 CNS was more than 100 µM each time. For the same compound, the TGI in the experiment with OVCAR-4 ovarian, with UACC-257 melanoma and in the experiment with SF-268 CNS was more than 100 µM each time.
On to `COc1ccc(C(=O)C(c2ccc(OC)cc2)C2(O)C(=O)Nc3c2ccc(Cl)c3C)cc1` (stereo not drawn), for which the TGI in the experiment on RPMI-8226 leukemia, in the experiment with U251 CNS, in the experiment on SN12C renal, in the experiment on SF-295 CNS, with OVCAR-4 ovarian and in the experiment on UACC-257 melanoma was more than 100 µM throughout. In the experiment with SF-268 CNS, this compound showed a TGI of more than 100 µM.
As to `C1=C2/CC[C@H](Sc3ccccc3)[C@H]2C2(CCCCC/1)OCCO2`, the TGI in the experiment on RPMI-8226 leukemia is 83.1 µM; in the experiment with SF-539 CNS, more than 100 µM; with HOP-92 NSCLC, 59.1 µM; in the experiment on U251 CNS, 63.1 µM; in the experiment on SN12C renal it was more than 100 µM; in the experiment on SF-295 CNS, more than 100 µM. Besides, the TGI in the experiment with UACC-257 melanoma is 55 µM; in the experiment on SF-268 CNS, more than 100 µM.
For the compound `N#CC(c1nc2ccccc2nc1Cl)S(=O)(=O)c1ccccc1` (stereo not drawn), the TGI was more than 100 µM in the experiment on RPMI-8226 leukemia; more than 100 µM with SF-539 CNS; 70.1 µM with HOP-92 NSCLC; more than 100 µM in the experiment with U251 CNS; more than 100 µM in the experiment with SN12C renal; more than 100 µM in the experiment with OVCAR-4 ovarian. In addition, the TGI in the experiment with UACC-257 melanoma and in the experiment with SF-268 CNS was more than 100 µM in each case.
On to `Cc1[nH]c2ccccc2c1C1Cc2ccccc2N1C(=O)/C=C/C(=O)O` (stereo not drawn), for which the TGI in the experiment on SF-539 CNS, in the experiment on U251 CNS, with SN12C renal, in the experiment on SF-295 CNS, in the experiment with OVCAR-4 ovarian and in the experiment with UACC-257 melanoma was more than 100 µM throughout. In addition, the TGI in the experiment with SF-268 CNS is more than 100 µM.
